Assay results from PMC3848336, “Aurora Isoform Selectivity: Design and Synthesis of Imidazo[4,5-b]pyridine Derivatives as Highly Selective Inhibitors of Aurora-A Kinase in Cells” (Journal of Medicinal Chemistry, 2013).

Target: T1, Aurora-A wild type (Homo sapiens, UniProt O14965)
T1 construct: expressed in transfected cells; host or cells: Hela cervical cancer cells; HCT116 human colon carcinoma cells
Assay: Cellular inhibition of Aurora-A autophosphorylation at T288 in HCT116 cells
Assay type: cell-based
Details: 1.5 μM
Protocol: Determination of cellular inhibition of Aurora-A (at T288) and histone H3 (at S10) has been described previously.[19] Briefly, cells were transfected with the Myc-tagged Aurora-A wild type or mutants and treated with different concentrations of the inhibitors for 2 h followed by lysis in LDS sample buffer. The samples were sonicated and boiled, and the proteins were separated by LDS–PAGE and transferred to nitrocellulose membranes. The upper and lower parts of the membranes were probed with anti-P-T288 (Aurora-A autophosphorylation/activation) and anti-P-histone H3 (Aurora-B substrate phosphorylation) antibodies, respectively. The blots were quantified and IC50 values determined using Graphpad Prism. Mammalian cell expression constructs encoding Aurora-A T217E, L215R, and R220K mutants with N-terminal Myc tags were produced using Quikchange mutagenesis (Stratagene).

T1 sequence (O14965 whole entry): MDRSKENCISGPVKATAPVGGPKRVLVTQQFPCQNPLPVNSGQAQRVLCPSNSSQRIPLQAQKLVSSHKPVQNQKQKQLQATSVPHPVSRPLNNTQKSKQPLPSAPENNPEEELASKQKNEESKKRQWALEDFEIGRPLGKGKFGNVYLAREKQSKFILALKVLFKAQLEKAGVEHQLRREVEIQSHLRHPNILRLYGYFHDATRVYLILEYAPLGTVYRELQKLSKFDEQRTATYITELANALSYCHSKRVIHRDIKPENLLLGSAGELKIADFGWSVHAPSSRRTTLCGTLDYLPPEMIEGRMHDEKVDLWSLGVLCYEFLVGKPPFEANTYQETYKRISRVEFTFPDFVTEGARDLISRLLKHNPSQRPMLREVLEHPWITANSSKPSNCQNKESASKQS

Cc1nn(C)cc1-c1nc2c(Oc3ccc(C(=O)NC4CCC4)cc3)c(Cl)cnc2[nH]1 [compound 40f, 4-((6-Chloro-2-(1,3-dimethyl-1H-pyrazol-4-yl)-3H-imidazo[4,5-b]pyridin-7-yl)oxy)-N-cyclobutylbenzamide]
phosphorylation of Aurora-A: completely inhibited
